One may read the IC50 as the midpoint of a concentration-inhibition curve. Low values mean inhibition by little substance, high ones a need for much substance.

The values that follow come from US20260374756A1, “HETEROCYCLIC COMPOUNDS AS INHIBITORS OF MONOACYLGLYCEROL LIPASE (MAGL)” (Hoffmann-La Roche Inc., priority 2022, published 2026).

The target in this test is T1, hMAGL (Homo sapiens, UniProt Q99685).
T1 sequence (Q99685 1-303): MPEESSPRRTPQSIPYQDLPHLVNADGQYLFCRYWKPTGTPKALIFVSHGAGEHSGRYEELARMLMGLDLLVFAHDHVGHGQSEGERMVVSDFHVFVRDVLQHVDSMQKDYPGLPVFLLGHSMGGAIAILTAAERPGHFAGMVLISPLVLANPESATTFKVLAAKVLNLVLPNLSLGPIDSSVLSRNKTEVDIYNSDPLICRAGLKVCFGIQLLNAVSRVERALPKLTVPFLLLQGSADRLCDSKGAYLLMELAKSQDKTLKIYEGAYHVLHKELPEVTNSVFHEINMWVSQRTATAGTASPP
The experiment in a line: 2-AG assay: MAGL inhibition, hydrolysis of 2-arachidonoylglycerol to arachidonic acid followed by mass spectrometry. The test is classed as biochemical. In a few lines:
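Read-out is LC-MS/MS of arachidonic acid released from 2-arachidonoylglycerol (8 μM final), normalised to d8-arachidonic acid internal standard after acetonitrile quench. Enzyme […] and compound were pre-mixed 15 min, then reacted 30 min, both at RT, in Tris/EDTA buffer with 0.01% Tween-20 and 2.5% DMSO.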

For the compound `O=C(N1CC2(CC(n3cnc(C4(O)CC4)n3)C2)C1)N1CC2(CN(Cc3ncc(C(F)(F)F)s3)C2)C1` [Example 148, [6-[3-(1-hydroxycyclopropyl)-1,2,4-triazol-1-yl]-2-azaspiro[3.3]heptan-2-yl]-[6-[[5-(trifluoromethyl)thiazol-2-yl]methyl]-2,6-diazaspiro[3.3]heptan-2-yl]methanone], half-maximal inhibition (IC50) was put at 10.8 nM.

In turn, `O=C(N1CC2(CC(n3cnc(C4CC4)n3)C2)C1)N1CC2(CN(Cc3cc(C4CC4)n[nH]3)C2)C1` [Example 283, [6-[(3-cyclopropyl-1H-pyrazol-5-yl)methyl]-2,6-diazaspiro[3.3]heptan-2-yl]-[6-(3-cyclopropyl-1,2,4-triazol-1-yl)-2-azaspiro[3.3]heptan-2-yl]methanone] yielded an IC50 of 8 nM.

For the compound `O=C(N1CC2(CCN(Cc3ncc(C(F)F)s3)CC2)C1)N1CC2(CC(n3cnc(C4(O)CC4)n3)C2)C1` [Example 33, [7-[[5-(difluoromethyl)thiazol-2-yl]methyl]-2,7-diazaspiro[3.5]nonan-2-yl]-[6-[3-(1-hydroxycyclopropyl)-1,2,4-triazol-1-yl]-2-azaspiro[3.3]heptan-2-yl]methanone], inhibition was half-maximal at 76.5 nM (IC50).

Turning to `O=C(N1CC2(CC(Cc3cn(CC(F)(F)F)nc3C(F)(F)F)C2)C1)N1CC2(CC(n3cnc(C4CC4)n3)C2)C1` [Example 122], it took 0.08 nM to reach half-maximal inhibition (IC50).

Regarding `O=C(N1CC2(CC(Cc3cc(C(F)(F)F)nn3CC(F)(F)F)C2)C1)N1CC2(CC(n3cnc(C(F)(F)F)n3)C2)C1` [Example 140, [6-[[2-(2,2,2-trifluoroethyl)-5-(trifluoromethyl)pyrazol-3-yl]methyl]-2-azaspiro[3.3]heptan-2-yl]-[6-[3-(trifluoromethyl)-1,2,4-triazol-1-yl]-2-azaspiro[3.3]heptan-2-yl]methanone], the IC50 came out at 0.47 nM.

In the case of `O=C(N1CC2(CC(Cc3nnc(C4(C(F)(F)F)CC4)o3)C2)C1)N1CC2(CC(n3cnc(C4CC4)n3)C2)C1` [Example 8], the IC50 was 0.7 nM.

Compound `O=C(N1CC2(CCC(Cc3nnc(C(F)(F)F)[nH]3)CC2)C1)N1CC2(CC(n3cnc(C(F)F)n3)C2)C1` [Example 315, [6-[3-(difluoromethyl)-1,2,4-triazol-1-yl]-2-azaspiro[3.3]heptan-2-yl]-[7-[[5-(trifluoromethyl)-4H-1,2,4-triazol-3-yl]methyl]-2-azaspiro[3.5]nonan-2-yl]methanone] returned an IC50 of 113 nM.

Turning to `O=C(N1CC2(CC(c3cc(C4CC4)n[nH]3)C2)C1)N1CC2(CN(Cc3nc(C4CC4)ns3)C2)C1` [Example 42, [6-(3-cyclopropyl-1H-pyrazol-5-yl)-2-azaspiro[3.3]heptan-2-yl]-[6-[(3-cyclopropyl-1,2,4-thiadiazol-5-yl)methyl]-2,6-diazaspiro[3.3]heptan-2-yl]methanone], inhibition was half-maximal at 3.85 nM (IC50).

Regarding `O=C(N1CC2(CC(Cc3cc(C4CC4)n[nH]3)C2)C1)N1CC2(CC(n3cnc(C4(O)CC4)n3)C2)C1` [Example 125, [6-[(3-cyclopropyl-1H-pyrazol-5-yl)methyl]-2-azaspiro[3.3]heptan-2-yl]-[6-[3-(1-hydroxycyclopropyl)-1,2,4-triazol-1-yl]-2-azaspiro[3.3]heptan-2-yl]methanone], it took 2.25 nM to reach half-maximal inhibition (IC50).

Compound `O=C(N1CC2(CC(n3cnc(C4CC4)n3)C2)C1)N1CC2(CN(Cc3cnn4ccccc34)C2)C1` [Example 285, [6-(3-cyclopropyl-1,2,4-triazol-1-yl)-2-azaspiro[3.3]heptan-2-yl]-[6-(pyrazolo[1,5-a]pyridin-3-ylmethyl)-2,6-diazaspiro[3.3]heptan-2-yl]methanone] gave an IC50 of 13.4 nM.

`CCc1nc(C)c(CN2CC3(C2)CN(C(=O)N2CC4(CC(n5cnc(C6CC6)n5)C4)C2)C3)[nH]1` [Example 306, [6-(3-cyclopropyl-1,2,4-triazol-1-yl)-2-azaspiro[3.3]heptan-2-yl]-[6-[(2-ethyl-4-methyl-1H-imidazol-5-yl)methyl]-2,6-diazaspiro[3.3]heptan-2-yl]methanone]: the IC50 came to 907 nM.
